Assay results published in publication PMC12015759, “A humanized Gs-coupled DREADD for circuit and behavior modulation” (Frontiers in Cellular Neuroscience, 2025).

Columns and labels:
PD mice [1] = assay: Rotarod test in 6-OHDA PD mice with bilateral AAV8R12-G88P7-hM3Ds-2A-EYFP; format: in vivo, mouse; details: CNO treatment
Protocol: (§1) Animals were anesthetized via intraperitoneal injection of pentobarbital sodium (Sigma) and placed into a stereotactic frame (RWD Instruments). An incision was made to expose the skull and locate the site above the SNr (from bregma: AP –3.4 mm, ML 1.3 mm, DV –4.8 mm). A hole in the skull was drilled above the SNr using an electrodrill (RWD Instruments). The AAV8R12-G88P7-hM3Ds-2A-EYFP vector (200 nL volume) was injected using a 10 μL 33-Gauge Hamilton syringe at a rate of 20 nL/min. The syringe was withdrawn 10 min after finishing injection. Behavioral experiments are performed at least 3 weeks after virus injection.
A PD mouse model was generated using 6-OHDA. Desipramine (Sigma) was administrated (25 mg/kg) via intraperitoneal injection 30 min before a 6-OHDA injection. The stereotactic injection procedure was identical to the AAV injection described above. A volume of 800 nL 6-OHDA (5 mg/mL) was injected into each side of striatum (from bregma: AP 0.5 mm, ML ±1.5 mm, DV –3.2 mm) at a rate of 100 nL/min. One week after 6-OHDA lesions were generated, AAV injections were administered, and behavioral tests were conducted 3 weeks after AAV injections.
After 3 days of habituation to the environment and operator, the mice were placed on a suspended rod apparatus (Xinruan) and trained at speeds of 10, 20, 30 and 40 rpm/min for 2 days. […]

hM3Ds-M5 (K406R) = hM3Ds-M5 (K406R) (Homo sapiens, UniProt P20309, A178S/A239G/A490L/DEL258-409/DEL413-482/I254V/INS485[…]/K179L/K183A/K256R/K487Q/K566R/L174F/L483Q/R172S/R177Q/R180L/T175R/T182R/Y149C/Y255F); details: CNO at 10 μM, compared to hM3Ds
Chain of hM3Ds-M5 (K406R) (P20309 with tags, fused parts or gaps with the stated changes): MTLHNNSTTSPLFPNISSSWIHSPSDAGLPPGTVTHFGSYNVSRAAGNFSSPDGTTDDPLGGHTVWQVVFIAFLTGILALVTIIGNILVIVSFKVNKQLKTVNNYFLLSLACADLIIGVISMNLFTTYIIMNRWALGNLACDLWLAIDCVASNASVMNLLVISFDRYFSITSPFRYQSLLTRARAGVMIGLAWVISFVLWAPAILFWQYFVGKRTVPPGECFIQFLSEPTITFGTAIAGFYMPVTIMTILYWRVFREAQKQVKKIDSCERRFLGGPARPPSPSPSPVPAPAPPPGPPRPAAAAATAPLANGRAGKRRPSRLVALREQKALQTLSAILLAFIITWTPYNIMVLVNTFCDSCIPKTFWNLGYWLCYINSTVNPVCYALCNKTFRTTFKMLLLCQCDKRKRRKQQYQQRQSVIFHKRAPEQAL
Protocol: (§2) As for the cAMP assay, HEK293T cells (ATCC) were seeded in 6-well plate with DMEM containing 10% fetal bovine serum. Upon reaching ~80% confluency, cells were transfected with DREADDs plasmids (30 ng), pCRE-Luc (GeneBank accession: AF053461.1, 600 ng) and pRL-SV40 (GeneBank accession: AF025845.2, 150 ng). The following day, cells were redistributed from 6-well plates to white opaque 96-well plates pre-coated with poly-L-lysine (Solarbio).
(§3) The plates were then placed back in the cell incubator for 6 h. The cAMP level was detected using a Dual Glo Luciferase Reporter Gene Assay Kit (YEASEN) following the manufacturer’s protocol. The data of each well was presented as the ratio of firefly luciferase luminescence to renilla luciferase luminescence.

hM3Ds-M6 (K407R) = hM3Ds-M6 (K407R) (Homo sapiens, UniProt P20309, A178S/A239G/A490L/DEL258-409/DEL413-482/I254V/INS485[…]/K179L/K183A/K256R/K487Q/K567R/L174F/L483Q/R172S/R177Q/R180L/T175R/T182R/Y149C/Y255F); details: CNO at 10 μM, compared to hM3Ds
Chain of hM3Ds-M6 (K407R) (P20309 with tags, fused parts or gaps with the stated changes): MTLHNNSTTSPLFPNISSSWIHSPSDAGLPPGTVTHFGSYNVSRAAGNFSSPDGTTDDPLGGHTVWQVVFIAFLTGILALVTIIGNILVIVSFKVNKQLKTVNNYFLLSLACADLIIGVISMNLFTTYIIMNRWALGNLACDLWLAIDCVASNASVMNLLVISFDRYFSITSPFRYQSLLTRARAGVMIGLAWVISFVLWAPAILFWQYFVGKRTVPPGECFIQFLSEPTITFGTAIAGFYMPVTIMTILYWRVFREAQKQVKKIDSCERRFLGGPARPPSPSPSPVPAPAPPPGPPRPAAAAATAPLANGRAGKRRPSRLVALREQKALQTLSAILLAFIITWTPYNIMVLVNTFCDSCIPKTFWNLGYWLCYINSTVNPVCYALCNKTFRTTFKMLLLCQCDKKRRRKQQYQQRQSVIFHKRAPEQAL
Protocol: as §2, §3

hM3Ds-M3 (D404G) = hM3Ds-M3 (D404G) (Homo sapiens, UniProt P20309, A178S/A239G/A490L/D564G/DEL258-409/DEL413-482/I254V/INS485[…]/K179L/K183A/K256R/K487Q/L174F/L483Q/R172S/R177Q/R180L/T175R/T182R/Y149C/Y255F); details: CNO at 10 μM, compared to hM3Ds
Chain of hM3Ds-M3 (D404G) (P20309 with tags, fused parts or gaps with the stated changes): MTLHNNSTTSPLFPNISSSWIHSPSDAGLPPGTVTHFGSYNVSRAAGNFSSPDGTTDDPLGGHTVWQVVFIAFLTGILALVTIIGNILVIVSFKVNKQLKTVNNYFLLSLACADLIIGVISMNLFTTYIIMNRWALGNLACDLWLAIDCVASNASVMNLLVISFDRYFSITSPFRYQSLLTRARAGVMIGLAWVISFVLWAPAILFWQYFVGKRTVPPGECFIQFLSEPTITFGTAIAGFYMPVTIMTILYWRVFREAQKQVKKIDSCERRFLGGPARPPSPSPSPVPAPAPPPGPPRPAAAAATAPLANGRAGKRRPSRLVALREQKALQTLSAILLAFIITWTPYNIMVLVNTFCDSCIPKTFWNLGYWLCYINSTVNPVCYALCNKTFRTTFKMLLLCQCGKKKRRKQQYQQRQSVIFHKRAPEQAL
Protocol: as §2, §3

hM3Ds-M4 (K405R) = hM3Ds-M4 (K405R) (Homo sapiens, UniProt P20309, A178S/A239G/A490L/DEL258-409/DEL413-482/I254V/INS485[…]/K179L/K183A/K256R/K487Q/K565R/L174F/L483Q/R172S/R177Q/R180L/T175R/T182R/Y149C/Y255F); details: CNO at 10 μM, compared to hM3Ds
Chain of hM3Ds-M4 (K405R) (P20309 with tags, fused parts or gaps with the stated changes): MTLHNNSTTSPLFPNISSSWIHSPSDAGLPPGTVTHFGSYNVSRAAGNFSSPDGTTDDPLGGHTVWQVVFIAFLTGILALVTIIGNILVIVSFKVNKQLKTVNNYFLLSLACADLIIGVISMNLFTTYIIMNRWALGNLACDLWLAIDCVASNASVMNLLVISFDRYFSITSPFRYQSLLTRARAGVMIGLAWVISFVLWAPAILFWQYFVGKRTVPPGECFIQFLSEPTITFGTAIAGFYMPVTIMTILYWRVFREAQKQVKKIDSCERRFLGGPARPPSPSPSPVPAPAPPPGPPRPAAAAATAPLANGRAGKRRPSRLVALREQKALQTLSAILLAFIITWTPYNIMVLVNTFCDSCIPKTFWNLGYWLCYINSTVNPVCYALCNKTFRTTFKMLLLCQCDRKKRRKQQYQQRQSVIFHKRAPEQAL
Protocol: as §2, §3

hM3Ds-M2 (Q402R) = hM3Ds-M2 (Q402R) (Homo sapiens, UniProt P20309, A178S/A239G/A490L/DEL258-409/DEL413-482/I254V/INS485[…]/K179L/K183A/K256R/K487Q/L174F/L483Q/Q562R/R172S/R177Q/R180L/T175R/T182R/Y149C/Y255F); details: CNO at 10 μM, compared to hM3Ds
Chain of hM3Ds-M2 (Q402R) (P20309 with tags, fused parts or gaps with the stated changes): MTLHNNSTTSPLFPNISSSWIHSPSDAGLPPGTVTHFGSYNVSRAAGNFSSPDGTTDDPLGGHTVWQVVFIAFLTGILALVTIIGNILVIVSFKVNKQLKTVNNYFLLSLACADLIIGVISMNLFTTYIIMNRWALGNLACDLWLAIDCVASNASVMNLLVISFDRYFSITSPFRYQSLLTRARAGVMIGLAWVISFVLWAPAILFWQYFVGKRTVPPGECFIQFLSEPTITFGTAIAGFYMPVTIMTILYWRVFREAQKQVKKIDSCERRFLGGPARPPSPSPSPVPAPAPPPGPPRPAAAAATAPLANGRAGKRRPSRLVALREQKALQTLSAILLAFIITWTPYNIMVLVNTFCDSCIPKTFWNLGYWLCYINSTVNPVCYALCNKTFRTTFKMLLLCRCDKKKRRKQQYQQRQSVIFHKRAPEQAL
Protocol: as §2, §3

mice = assay: Open field test after unilateral AAV8R12-G88P7-hM3Ds-2A-EYFP injection into the SNr; format: in vivo, mouse; details: CNO 0.3 mg/kg intraperitoneal vs saline, unilateral hM3Ds in D1-MSNs
Protocol: as §1
Mice were tested in an open field box arena with length, width and height of 50 × 50 × 50 cm. The animals underwent 3 days of habituation to the environment and experimenter and 1 day of habituation to the test apparatus. On the test day, the animals were injected with saline or CNO (0.3 mg/kg). The animals were placed into the test box 30 min after injection and video was recorded for 10 min. The number of rotations, distance traveled, and time spent immobile were then quantified using Anymaze software and the video recordings.

PD mice [2] = assay: Open field test in 6-OHDA PD mice with bilateral AAV8R12-G88P7-hM3Ds-2A-EYFP; format: in vivo, mouse; details: CNO 0.3 mg/kg
Protocol: as §1
A PD mouse model was generated using 6-OHDA. Desipramine (Sigma) was administrated (25 mg/kg) via intraperitoneal injection 30 min before a 6-OHDA injection. The stereotactic injection procedure was identical to the AAV injection described above. A volume of 800 nL 6-OHDA (5 mg/mL) was injected into each side of striatum (from bregma: AP 0.5 mm, ML ±1.5 mm, DV –3.2 mm) at a rate of 100 nL/min. […]
Mice were tested in an open field box arena with length, width and height of 50 × 50 × 50 cm. […] The animals were placed into the test box 30 min after injection and video was recorded for 10 min. The number of rotations, distance traveled, and time spent immobile were then quantified using Anymaze software and the video recordings.

With C[N+]1([O-])CCN(C2=Nc3cc(Cl)ccc3Nc3ccccc32)CC1 [CNO, clozapine N-oxide] the “latency to fall (rotarod)” value (PD mice [1]) was “partial recovery of motor skills”, the “fold change in luciferase activity” value (hM3Ds-M5 (K406R)) was “reduced luciferase activity compared to hM3Ds” and the “fold change in luciferase activity” value (hM3Ds-M6 (K407R)) was “reduced luciferase activity compared to hM3Ds”. The “fold change in luciferase activity” value (hM3Ds-M3 (D404G)) was “reduced luciferase activity compared to hM3Ds”, the “fold change in luciferase activity” value (hM3Ds-M4 (K405R)) was “reduced luciferase activity compared to hM3Ds” and the “fold change in luciferase activity” value (hM3Ds-M2 (Q402R)) was “reduced luciferase activity compared to hM3Ds”. The contralateral rotation (mice) was “more contralateral rotation”, the total distance traveled (mice) was “no difference” and the mean distance traveled (PD mice [2]) was “reversed”. For the same molecule, the time spent immobile (PD mice [2]) was “reversed”.
